Reference: patent publication US20240116933A1, “INDAZOLE AND PYRAZOLOPYRIDINE COMPOUNDS AS INHIBITORS OF NLRP3 INFLAMMASOME” (BioAge Labs, Inc., priority 2022, published 2024)

target: T1, NLRP3 inflammasome (Homo sapiens, UniProt Q96P20); test: THP-1 Cell-Based NLRP3 Activation Assay; details: THP-1 cells, PMA, 100 ng/mL LPS 3 hrs, 30 min pre-incubation with test compound, 10 μM nigericin 1 hr
T1 construct: endogenous in cells; host or cells: THP-1 cells (PMA-differentiated, LPS-primed, nigericin-stimulated)
T1 sequence (Q96P20 whole entry): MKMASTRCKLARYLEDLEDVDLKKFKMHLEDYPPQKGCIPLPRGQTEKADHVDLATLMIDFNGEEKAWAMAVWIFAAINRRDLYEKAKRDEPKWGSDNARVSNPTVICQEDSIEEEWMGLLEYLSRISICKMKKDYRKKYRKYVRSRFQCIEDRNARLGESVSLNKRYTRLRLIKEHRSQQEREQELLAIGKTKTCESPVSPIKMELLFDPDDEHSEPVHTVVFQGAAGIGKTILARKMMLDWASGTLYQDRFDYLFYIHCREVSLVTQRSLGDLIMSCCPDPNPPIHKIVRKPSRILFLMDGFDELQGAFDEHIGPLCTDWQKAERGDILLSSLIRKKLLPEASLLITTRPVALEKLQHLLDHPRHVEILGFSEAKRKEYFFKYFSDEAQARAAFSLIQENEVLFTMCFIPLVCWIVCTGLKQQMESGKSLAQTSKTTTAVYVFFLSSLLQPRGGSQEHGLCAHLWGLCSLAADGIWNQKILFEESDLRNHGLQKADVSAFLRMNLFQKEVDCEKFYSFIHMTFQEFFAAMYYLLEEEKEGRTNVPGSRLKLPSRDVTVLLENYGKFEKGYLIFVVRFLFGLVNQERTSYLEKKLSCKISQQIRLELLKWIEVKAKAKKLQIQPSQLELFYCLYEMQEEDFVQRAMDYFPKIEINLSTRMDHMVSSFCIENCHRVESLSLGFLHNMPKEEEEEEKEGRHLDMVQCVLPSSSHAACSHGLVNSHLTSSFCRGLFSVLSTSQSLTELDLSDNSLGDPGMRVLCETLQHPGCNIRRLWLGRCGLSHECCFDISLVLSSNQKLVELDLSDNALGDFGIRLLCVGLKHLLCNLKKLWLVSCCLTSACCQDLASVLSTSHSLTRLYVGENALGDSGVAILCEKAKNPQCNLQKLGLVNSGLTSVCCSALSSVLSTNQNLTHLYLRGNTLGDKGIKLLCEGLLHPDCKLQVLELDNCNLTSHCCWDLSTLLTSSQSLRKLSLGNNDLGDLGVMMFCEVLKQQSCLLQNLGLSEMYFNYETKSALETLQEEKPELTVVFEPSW
Description: THP-1 cells are cultured in complete media (CM) until they reach logarithmic growth and achieve a viability >90%. CM is composed of RPMI-1640 (+Glutamax)/10% fetal bovine serum/55 μM β-mercaptoethanol/pen/strep. Cells are spun down and resuspended to 1,000,000 cells/mL in CM containing either 20 nM or 500 nM PMA. 150,000 cells […] are then added to each well of a 96-well TC plate and incubated for either 24 hr or 3 hr, respectively, in a standard cell culture incubator (37° C.; 5% CO2). After this incubation, the plate is tilted and media carefully removed. 200 μL of CM containing 100 ng/mL LPS is then added to the wells and the cells incubated an additional 3 hrs. The media is again removed and replaced with Opti-Mem medium containing pre-determined dilutions of test compounds in replicate wells. After a 30 min pre-incubation with test compound, 10 μM nigericin (final concentration) in Opti-Mem medium with the corresponding concentration of compound is added to the wells for an additional 1 hr. Positive control wells contain 10 μM nigericin in Opti-Mem in the absence of test compound, while negative control wells contain Opti-Mem only. […] Once supernatants are removed, the relative viability of adherent cells in the 96-well TC plate are determined using a CellTiter-Glo® luminescent cell viability assay (Promega).

Row | Compound | IC50 [µM]
1 | CCN(Cc1cnc(C)c2cn[nH]c12)C(=O)c1cc(F)c(-c2cccc(Cl)c2)c(OC2CC2)c1 [Compound 032] | < 1
2 | CCOc1cc(C(=O)N(C)Cc2ccc(CO)c3cn[nH]c23)ccc1-c1cccc(F)c1 [Compound 066] | < 1
3 | CCOc1cc(C(=O)N(C)Cc2cc(O)cc3cn[nH]c23)cc(F)c1-c1cccc(F)c1 [Compound 098] | < 1
4 | CCOc1cc(C(=O)N(C)[C@@H](C)c2c(C)ncc3cn[nH]c23)ccc1-c1cccc(F)c1 [Compound 045] | < 10
5 | CCOc1cc(C(=O)N(C)Cc2cnc(C(O)C(F)(F)F)c3cn[nH]c23)ccc1-c1cccc(F)c1 (stereo not shown) [Compound 171] | < 1
6 | CCOc1cc(C(=O)N(CC)Cc2cnc(C(C)O)c3cn[nH]c23)cc(F)c1-c1cccc(F)c1 (stereo not shown) [Compound 174] | < 1
7 | CCOc1cc(C(=O)N(C)[C@H](C)c2cnc(C)c3cn[nH]c23)ccc1-c1cccc(F)c1 [Compound 050] | < 1
8 | CCOc1cc(C(=O)N(C)Cc2cc(CO)cc3cn[nH]c23)ccc1-c1cccc(F)c1 [Compound 069] | < 1
9 | CCOc1cc(C(=O)N(C)Cc2cnc(C(C)O)c3cn[nH]c23)cc(F)c1-c1cc(C#N)cs1 (stereo not shown) [Compound 072] | < 10
10 | CCOc1cc(C(=O)N(C)Cc2cnc(C(C)O)c3cn[nH]c23)ccc1-c1ccc(Cl)s1 (stereo not shown) [Compound 163] | < 1
11 | CCOc1cc(C(=O)N(C)Cc2cnc(CO)c3cn[nH]c23)cc(F)c1-c1ccsc1 [Compound 107] | < 1
12 | CC(O)c1ncc(CN(C)C(=O)c2ccc(-c3cccs3)c(OC3CC3)c2)c2[nH]ncc12 (stereo not shown) [Compound 083] | < 10
13 | CCOc1cc(C(=O)N(C)Cc2cccc3[nH]ncc23)ccc1-c1cccc(F)c1 [Compound 129] | < 10
14 | CCOc1cc(C(=O)N(C)Cc2c(O)ccc3cn[nH]c23)ccc1-c1cccc(F)c1 [Compound 036] | < 1
15 | CC(C)Oc1cc(C(=O)N(C)Cc2cnc(CO)c3cn[nH]c23)ccc1-c1cccc(F)c1 [Compound 134] | < 1
16 | CCN(Cc1cnc(CO)c2cn[nH]c12)C(=O)c1cc(F)c(-c2cccc(Cl)c2)c(OC2CC2)c1 [Compound 092] | < 1
17 | CCOc1cc(C(=O)N(C)[C@@H](C)c2cnc(C)c3cn[nH]c23)ccc1-c1cccc(F)c1 [Compound 049] | < 50
18 | CCOc1cc(C(=O)N(C)[C@H](C)c2cc(F)cc3cn[nH]c23)ccc1-c1cccc(F)c1 [Compound 043] | < 50
19 | CN(Cc1cnc(CO)c2cn[nH]c12)C(=O)c1ccc(-c2cccc(F)c2)c(OC2COC2)c1 [Compound 151] | < 10
20 | Cc1nc(CO)c2cn[nH]c2c1CN(C)C(=O)c1ccc(-c2cccc(C#N)c2)c(OC2CC2)c1 [Compound 078] | < 1
21 | Cc1ncc2cn[nH]c2c1CN(C)C(=O)c1cc(F)c(-c2cccc(F)c2)c(OC2CC2)c1 [Compound 062] | < 1
22 | CC(O)c1ncc(CN(C)C(=O)c2ccc(-c3cccc(Cl)c3)c(OC3CC3)c2)c2[nH]ncc12 (stereo not shown) [Compound 101] | < 1
23 | CCOc1cc(C(=O)N(C)Cc2cnc(C(C)O)c3cn[nH]c23)cc(F)c1-c1cc(F)cc(Cl)c1 (stereo not shown) [Compound 096] | < 1

Row | Compound | IC50 [µM]
24 | CCOc1cc(C(=O)N(C)Cc2cnc(CO)c3cn[nH]c23)cc(Cl)c1-c1cccc(F)c1 [Compound 175] | < 10
25 | CCOc1cc(C(=O)N(C)Cc2c(COC)ncc3cn[nH]c23)ccc1-c1cccc(F)c1 [Compound 077] | < 1
26 | CCOc1cc(C(=O)N(C)Cc2cnc(CO)c3cn[nH]c23)cc(F)c1-c1cc(F)cc(F)c1 [Compound 131] | < 1
27 | CC(C)Oc1cc(C(=O)N(C)Cc2cnc(CO)c3cn[nH]c23)ccc1-c1cc(F)cc(F)c1 [Compound 142] | < 1
28 | CN(Cc1cnc(CO)c2cn[nH]c12)C(=O)c1cc(F)c(-c2cccc(Cl)c2)c(OC2CC2)c1 [Compound 047] | < 1
29 | Cc1ncc([C@@H](C)N(C)C(=O)c2cc(F)c(-c3cccc(F)c3)c(OC3CC3)c2)c2[nH]ncc12 [Compound 034] | < 10
30 | CCOc1cc(C(=O)N(C)Cc2c(C3CC3)ncc3cn[nH]c23)ccc1-c1cccc(F)c1 [Compound 011] | < 1
31 | CCOc1cc(C(=O)N(C)Cc2cnc(CO)c3cn[nH]c23)ccc1-c1ccc(Cl)s1 [Compound 164] | < 1
32 | CC(O)c1ncc(CN(C)C(=O)c2ccc(-c3cccc(C#N)c3)c(OC3CC3)c2)c2[nH]ncc12 (stereo not shown) [Compound 080] | < 50
33 | CCOc1nc(C(=O)N(C)[C@@H](C)c2cncc3cn[nH]c23)ccc1-c1cccc(F)c1 [Compound 056] | < 1
34 | CCCOc1cc(C(=O)N(C)Cc2cnc(CO)c3cn[nH]c23)cc(F)c1-c1cccc(F)c1 [Compound 138] | < 1
35 | CCOc1cc(C(=O)N(C)Cc2cc(O)cc3cn[nH]c23)cc(F)c1-c1cccc(Cl)c1 [Compound 178] | < 1
36 | CCOc1nc(C(=O)N(C)Cc2cnc(CF)c3cn[nH]c23)ccc1-c1cccc(C(F)(F)F)c1 [Compound 046] | < 1
37 | CCOc1cc(C(=O)N(C)Cc2cnc(C(C)O)c3cn[nH]c23)cc(Cl)c1-c1cccc(F)c1 (stereo not shown) [Compound 156] | < 50
38 | CCOc1cc(C(=O)N(C)[C@H](C)c2ccc(CF)c3cn[nH]c23)ccc1-c1cccc(F)c1 (single isomer, unassigned) [Compound 169] | < 10
39 | CCOc1cc(C(=O)N(C)Cc2cnc(C(C)O)c3cn[nH]c23)ccc1-c1cccc(Cl)c1 (stereo not shown) [Compound 030] | < 1
40 | CCOc1cc(C(=O)N(C)Cc2c(C)nc(CO)c3cn[nH]c23)ccc1-c1cccc(F)c1 [Compound 037] | < 1
41 | CC(C)Oc1cc(C(=O)N(C)Cc2cnc(C(C)O)c3cn[nH]c23)ccc1-c1cccc(Cl)c1 (stereo not shown) [Compound 141] | < 1
42 | CN(Cc1cnc(CF)c2cn[nH]c12)C(=O)c1cc(F)c(-c2cccc(Cl)c2)c(OC2CC2)c1 [Compound 071] | < 1
43 | CCOc1cc(C(=O)N(C)C(C)c2ccc(F)c3cn[nH]c23)ccc1-c1cccc(F)c1 (stereo not shown) [Compound 116] | < 1
44 | Cc1nc(C)c2cn[nH]c2c1CN(C)C(=O)c1cc(F)c(-c2cccc(Cl)c2)c(OC2CC2)c1 [Compound 120] | < 1
45 | CCOc1cc(C(=O)N(C)[C@H](C)c2cccc3cn[nH]c23)ccc1-c1cccc(F)c1 [Compound 058] | < 50
46 | CCOc1cc(C(=O)N(C)Cc2c(C)nc(C(C)O)c3cn[nH]c23)ccc1-c1cccc(F)c1 (stereo not shown) [Compound 079] | < 1

Row | Compound | IC50 [µM]
47 | CCOc1cc(C(=O)N(CC)Cc2cnc(CO)c3cn[nH]c23)ccc1-c1cccc(F)c1 [Compound 097] | < 1
48 | CCOc1cc(C(=O)N(C)Cc2cc(C(=O)OC)cc3cn[nH]c23)ccc1-c1cccc(F)c1 [Compound 008] | < 10
49 | CCN(Cc1cnc(CO)c2cn[nH]c12)C(=O)c1ccc(-c2cccc(F)c2)c(OC2CC2)c1 [Compound 100] | < 1
50 | CN(Cc1cnc(CO)c2cn[nH]c12)C(=O)c1ccc(-c2cccc(F)c2)c(OC2CCC2)c1 [Compound 137] | < 1
51 | CN(Cc1cc(O)cc2cn[nH]c12)C(=O)c1cc(F)c(-c2ccccc2)c(OC2CC2)c1 [Compound 114] | < 1
52 | CCOc1cc(C(=O)N(C)Cc2cccc3[nH]ncc23)ccc1-c1cccc(C#N)c1 [Compound 126] | < 1
53 | CCOc1cc(C(=O)N(CC)Cc2cnc(CO)c3cn[nH]c23)ccc1-c1cccc(C#N)c1 [Compound 103] | < 10
54 | CN(Cc1cnc(CO)c2cn[nH]c12)C(=O)c1ccc(-c2cccc(Cl)c2)c(OC2CCC2)c1 [Compound 084] | < 1
55 | CC(C)Oc1cc(C(=O)N(C)Cc2cnc(CO)c3cn[nH]c23)ccc1-c1cccc(Cl)c1 [Compound 143] | < 1
56 | CCOc1cc(C(=O)N(C)Cc2cnc(CO)c3cn[nH]c23)cc(F)c1-c1cccs1 [Compound 106] | < 1
57 | CCOc1nc(C(=O)N(C)Cc2cc(O)cc3cn[nH]c23)ccc1-c1cccc(F)c1 [Compound 128] | < 10
58 | CCOc1cc(C(=O)N(C)Cc2c(C)c(OC)cc3cn[nH]c23)ccc1-c1cccc(F)c1 [Compound 167] | < 1
59 | CN(Cc1c(CO)ncc2cn[nH]c12)C(=O)c1ccc(-c2cccc(Cl)c2)c(OC2CC2)c1 [Compound 144] | < 1
60 | CCOc1cc(C(=O)N(C)Cc2cc(O)cc3cn[nH]c23)cc(F)c1-c1ccccc1 [Compound 112] | < 1
61 | CCC(c1cncc2cn[nH]c12)N(C)C(=O)c1ccc(-c2cccc(F)c2)c(OC2CC2)c1 (stereo not shown) [Compound 109] | < 1
62 | CN(Cc1cnc(CF)c2cn[nH]c12)C(=O)c1cc(F)c(-c2cc(F)cs2)c(OC2CC2)c1 [Compound 181] | < 1
63 | CCN(Cc1cnc(C(C)O)c2cn[nH]c12)C(=O)c1ccc(-c2cccc(F)c2)c(OC2CC2)c1 (stereo not shown) [Compound 179] | < 1
64 | CCOc1cc(C(=O)N(C)Cc2c(C)nc(C)c3cn[nH]c23)ccc1-c1cccc(F)c1 [Compound 053] | < 1
65 | CCOc1cc(C(=O)N(C)Cc2cnc(CO)c3cn[nH]c23)cc(F)c1-c1cc(F)cs1 [Compound 093] | < 1
66 | CCOc1cc(C(=O)N(CC)Cc2cnc(C(C)O)c3cn[nH]c23)ccc1-c1cccc(F)c1 (stereo not shown) [Compound 067] | < 1
67 | CCOc1cc(C(=O)N(C)Cc2c(F)c(O)cc3cn[nH]c23)ccc1-c1cccc(F)c1 [Compound 148] | < 1
